This note sets out measurements from PubChem BioAssay (NCI).

SMILES strings stand for the structures.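 Dose response: 5 concentrations. Exposure: 48 h. Format: 96-well plates. Endpoint: linear interpolation; highest concentration if not reached. At the GI50, growth is halved. TGI denotes the concentration required for complete inhibition of growth.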 Bounds are passed on as bounds.

Holding throughout (assay): growth of human tumour cells (NCI), 48 h
The test system of assay [1] is MDA-MB-435.
Assay [2] has as its system SK-OV-3 ovarian.
Assay [3] concerns HS 578T breast.
In assay [4] the test system is SF-268 CNS.
Assay [5] concerns KM12 colon.
The test system of assay [6] is RPMI-8226 leukemia.
Assay [7] concerns 786-0 renal.
The test system of assay [8] is SN12C renal.
The subject of assay [9] is SK-MEL-5 melanoma.
Assay [10] concerns NCI-H226 lung.

In the case of `O=c1c(/C=C/c2c(O)ccc3ccccc23)nnc2sc(-c3cccc([N+](=O)[O-])c3)nn12`, the TGI was above 100 µM in assay [1]; above 100 µM in assay [2]; 56.1 µM in assay [3]; 89.8 µM in assay [4]; above 100 µM in assay [5]; above 100 µM in assay [6]. In addition, the TGI in [7] and in [8] was above 100 µM throughout.

For `NNC(=O)Cc1cccnc1`, the TGI in [1], in assay [2], in [3], in [4], in assay [5] and in assay [6] was above 100 µM each time. Moreover, the TGI in assay [9], in assay [7] and in assay [8] was above 100 µM throughout.

Turning to `CCOC(O)C(F)(F)F` (stereo not given), the TGI in [1], in assay [2], in [3], in assay [4], in [5] and in assay [9] was above 100 µM each time. The TGI in assay [10] and in assay [8] was above 100 µM in each case.

Consider `CCC(C)NC(=S)N/N=C(\C)c1ccccn1` (stereo not given), for which the TGI was above 100 µM in assay [1]; above 100 µM in [2]; above 100 µM in assay [3]; above 100 µM in assay [4]; above 100 µM in [5]; 6.83 µM in assay [10]. The TGI in assay [7] and in assay [8] was above 100 µM each time.

As for `OCCN1CN(c2nc(N3CN(CCO)C3)nc(N3CN(CCO)C3)n2)C1`, the TGI in assay [1] was 32.4 µM; in [3] it was 66.7 µM; in assay [4], 48.3 µM; in assay [5] it was 47.9 µM; in assay [6], above 100 µM; in assay [9] it was 33.4 µM. In addition, the results for the TGI in assay [10], in assay [7] and in [8] were 51.2 µM, 60.7 µM and 39.5 µM, respectively.

`C=C(C)[C@@H]1CC[C@]2(CO)CC[C@]3(C)[C@H](CC[C@@H]4[C@@]5(C)CC[C@H](O)C(C)(C)[C@@H]5CC[C@]43C)[C@@H]12`: the TGI is 57.1 µM in assay [1]; above 100 µM in assay [4]; above 100 µM in [5]; 57.9 µM in [9]; above 100 µM in [10]; 27.1 µM in assay [7]. The TGI in assay [8] amounted to 69.6 µM.

With `Cc1c(C)c2c(c(N)c1C#N)C(=O)N(OS(=O)(=O)c1ccccc1)C2=O`, the TGI in assay [1] is 58.8 µM; in [3] it was above 100 µM; in assay [4] it was above 100 µM; in assay [5], above 100 µM; in assay [6] it was 37.8 µM; in assay [9], above 100 µM. Further, the values for the TGI in assay [10], in assay [7] and in assay [8] were 43.3 µM, 30.3 µM and 51.4 µM, respectively.

Regarding `C/C=C1\CN2CCC34c5ccccc5N(C)C35OCC4(C(=O)OC)C1CC25` (stereo not given), the TGI in assay [1], in assay [2], in [3], in assay [4], in assay [5] and in assay [6] was above 100 µM each time. Besides, the TGI in [9] was 33.5 µM; in [7], above 100 µM; in [8], above 100 µM.

`CC1(C)C2CCC1(C)C(N/C(=C(/C(Cl)=C(Cl)Cl)[N+](=O)[O-])n1nnc3ccccc31)C2` (stereo not given): the TGI in assay [1] is 46.2 µM; in assay [2], above 100 µM; in assay [3], 43.6 µM; in assay [4] it was 37.9 µM; in [5], 87.9 µM; in assay [6], above 100 µM. Besides, the TGI in [10] is 50.3 µM; in [7] it was above 100 µM; in [8] it was above 100 µM.

Consider `N#CC(c1nc2ccccc2s1)c1nc(Cl)ncc1Br` (stereo not given), for which the TGI was above 100 µM in [1]; above 100 µM in [2]; above 100 µM in assay [4]; above 100 µM in assay [5]; 81.1 µM in assay [6]; 43.5 µM in [9]. The TGI in assay [10], in assay [7] and in assay [8] was above 100 µM throughout.

Regarding `CSc1nc2c(c(=O)n1C)N=C(c1ccc(Cl)cc1)CC(c1ccccc1)N2` (stereo not given), the TGI is above 100 µM in [1]; 70.3 µM in [2]; 31.7 µM in assay [5]; 47.8 µM in assay [6]; 33.7 µM in assay [9]; 42.6 µM in assay [10]. Besides, the TGI is above 100 µM in assay [7] and 39.4 µM in assay [8].

For `CC(=O)Nc1ccc(N2C(=O)CS(=O)(=O)C2c2cccc(Oc3ccccc3)c2)cc1` (stereo not given), the TGI in [1] was found to be 48.5 µM; in assay [2] it was 83.1 µM; in assay [3] it was 79.9 µM; in assay [4], 41.7 µM; in [5], 47.2 µM; in assay [9], 28.7 µM. In addition, the TGI turned out to be 35.8 µM in assay [10], 35.7 µM in [7] and 29.6 µM in assay [8].

Regarding `OCc1c2c(cc3c1CC1(C3)Cc3cc4c(c(CO)c3C1)CCC4)CCC2`, the TGI in [1] was found to be 36.9 µM; in assay [2] it was 33 µM; in assay [3], 36.9 µM; in assay [5] it was 31.2 µM; in assay [6], 47.5 µM; in [9], 17.9 µM. The TGI is 28.5 µM in assay [10], 27.7 µM in assay [7] and 32.4 µM in [8].

As for `COC(=O)c1c(O)ccc2c1c1c(n2Cc2ccc(OC)cc2)C(=O)c2ccccc2C1=O`, the TGI worked out at 22.3 µM in assay [1]; 48.1 µM in [2]; 58.1 µM in assay [3]; 55 µM in assay [4]; 45.3 µM in [5]; 1.9 µM in [6]. The TGI in [10] was 25.8 µM; in assay [7] it was 28.5 µM; in assay [8], 7.35 µM.

As for `Cc1ccc(S(=O)(=O)NC(=O)NC(Cc2ccccc2)C(=O)O)cc1` (stereo not given), the TGI in assay [2], in assay [3], in assay [4], in assay [5], in [6] and in assay [9] was above 100 µM in each case. The TGI in [7] and in assay [8] was above 100 µM throughout.

`Fc1ccc(C2NC(=S)NC3=C2CCOc2c3ccc3ccccc23)cc1` (stereo not given): the TGI in assay [1] is 43.4 µM; in assay [2], above 100 µM; in [3], above 100 µM; in [4] it was above 100 µM; in assay [5] it was above 100 µM; in assay [6], above 100 µM. For the same compound, the TGI in [9] is 37.1 µM; in assay [7] it was above 100 µM; in assay [8], above 100 µM.

`CN(C)Cc1cc(C(C)(C)C)cc(CNC2CCCCC2)c1O`: the TGI in [1] was above 100 µM; in assay [2], above 100 µM; in [3], above 100 µM; in assay [4] it was 47.4 µM; in assay [5], above 100 µM; in [6], 57.9 µM. For the same compound, the values for the TGI in assay [9], in [7] and in assay [8] were 30.2 µM, above 100 µM and above 100 µM, respectively.

In the case of `O=c1[nH]c(=S)c2cc3c(=S)[nH]c(=O)n(CCC(c4ccccc4)(c4ccccc4)c4ccccc4)c3nc2n1CCC(c1ccccc1)(c1ccccc1)c1ccccc1`, the TGI in assay [1], in assay [2], in [4], in assay [5], in assay [6] and in [9] was above 100 µM in each case. The TGI in assay [10], in [7] and in assay [8] was above 100 µM throughout.

Consider `CCSCC(=O)N1CCc2c([nH]c3ccccc23)C1=O`, for which the TGI in assay [1], in assay [2], in assay [3], in assay [4], in assay [5] and in [9] was above 100 µM throughout. Also, the TGI in assay [10], in assay [7] and in assay [8] was above 100 µM each time.

Take `Cc1c(NC(=S)N/N=C\C(=N/NC(=S)Nc2c(C)n(C)n(-c3ccccc3)c2=O)c2ccccc2)c(=O)n(-c2ccccc2)n1C`: the TGI in assay [1], in [2], in assay [3], in assay [4], in assay [5] and in assay [9] was above 100 µM each time. Moreover, the TGI in assay [10] and in assay [7] was above 100 µM in each case.

As for `COC(=O)c1c(C)ccc2c(O)c3c(cc12)C(=O)c1c2c(cc(O)c1C3=O)C1(C)OC(C)(O2)C(O)C(N(C)C)C1O` (stereo not given), the TGI is 2.97 µM in assay [1]; above 100 µM in assay [2]; 2.7 µM in assay [4]; 2.97 µM in assay [5]; 17.3 µM in assay [9]; 11.5 µM in assay [10]. In addition, the TGI was 1.95 µM in assay [7] and 12.1 µM in [8].

As for `OC12C3C4CC5C(C4[C@@H]1Br)C2[C@@](O)(c1c(F)c(F)c(F)c(F)c1F)C53` (stereo not given in full), the TGI is above 100 µM in assay [1]; 97.5 µM in assay [3]; above 100 µM in assay [4]; 34.5 µM in assay [5]; 59.3 µM in assay [9]; above 100 µM in assay [7]. The TGI in [8] is above 100 µM.

Consider `Cc1ccc2ccc(=O)oc2c1`, for which the TGI in [1], in assay [3], in assay [4], in [5], in [6] and in [9] was above 100 µM in each case. Moreover, the TGI in assay [10], in assay [7] and in assay [8] was above 100 µM in each case.

As for `O=c1[nH]nc(Cc2ccccc2)n1/N=C/c1ccc([N+](=O)[O-])o1`, the TGI in [1] was 3.8 µM; in assay [2] it was above 100 µM; in [3] it was 7.29 µM; in [4], 11.7 µM; in assay [5], 6.49 µM; in assay [6], 21.2 µM. Further, the TGI in assay [10] came to 29.5 µM; in assay [7] it was 22.7 µM; in assay [8], 46 µM.

With `O=C(Nc1ccc(Cl)cc1)c1cccc([N+](=O)[O-])c1O`, the TGI in [2] was 13.7 µM; in [4] it was above 85 µM; in assay [5] it was above 62.4 µM; in assay [6], 7.2 µM; in assay [9] it was 4.86 µM; in [10], 7.95 µM. In addition, the results for the TGI in [7] and in assay [8] were above 56.7 µM and above 74.7 µM, respectively.

For the compound `CC1(C)CC(=O)C2=C(C1)NC(SCC(=O)O)=C(C#N)C2c1ccc(Br)cc1` (stereo not given), the TGI in assay [1], in [2], in assay [3], in assay [4], in assay [5] and in assay [9] was above 100 µM each time. The TGI in assay [10] and in [7] was above 100 µM in each case.

Regarding `CC(=O)c1cc2c(s1)C(=O)c1scc(C(C)=O)c1C2=O`, the TGI in assay [1] came to 0.496 µM; in assay [2] it was 4.86 µM; in assay [4] it was 1.5 µM; in assay [5], 3.39 µM; in assay [6], 1.08 µM; in assay [9], 1.53 µM. The TGI in assay [10] came to 3.57 µM; in assay [7] it was 1.9 µM; in [8], 0.426 µM.

Consider `O=C(Nc1ccc(-n2cc(-c3ccncc3)c(-c3ccc(O)c(Cl)c3)n2)cc1)c1cc(Cl)cc(Cl)c1`, for which the GI50 in assay [1] is 1.87 µM; in [3], 0.939 µM; in assay [4], 3.85 µM; in [5], 1.47 µM; in assay [6], 1.07 µM; in assay [9], 0.877 µM. Besides, the GI50 in assay [10] is above 32.5 µM; in assay [8] it was 2.44 µM. Besides, the TGI is above 32.5 µM in [1]; 6.52 µM in assay [3]; above 32.5 µM in [4]; above 32.5 µM in assay [5]; 6.18 µM in assay [6]; 6.85 µM in assay [9]. In addition, the TGI in assay [10] and in assay [8] was above 32.5 µM each time.

As to `C/C=C1/CN2[C@@H](C3=C[C@@H]4[C@@H]5N(C3=O)c3ccccc3[C@@]53CCN5C/C(=C/C)[C@@H]4C[C@H]53)C[C@@]34c5ccccc5N5C(=O)CC=C([C@H]1C[C@H]23)[C@H]54`, the TGI was determined as 14.1 µM in [1]; 16.8 µM in assay [2]; 17.3 µM in assay [3]; 14.1 µM in assay [4]; 17 µM in assay [5]; 8.93 µM in [9]. Moreover, the TGI was found to be 16.5 µM in [10], 7.8 µM in [7] and 9.95 µM in assay [8].
